Values of other authors in US4181797A, “1-N-(ω-amino-α-hydroxyalkanoyl) derivatives of 4'-deoxy-6'-N-methylkanamycin A” (Bristol-Myers Company, priority 1978, dated 1980).

How the values were obtained:
[1] = test system: resistant strains which contain 6'-N-acetylating enzymes; conditions: background statement; cited from earlier work
[2] = test system: strains which phosphorylate the 3'-hydroxy group; conditions: background statement; cited from earlier work
[3] = test system: kanamycin phosphotransferase Type-II; conditions: The Journal of Antibiotics, 27, 722-725 and 838-850 (1974); cited from earlier work

SMILES | activity against strains with 6'-N-acetylating enzymes [1] | activity against 3'-hydroxy phosphorylating strains [2] | resistance to kanamycin phosphotransferase Type-II [3]
NCC1OC(OC2C(N)CC(N)C(OC3OC(CO)C(O)C(N)C3O)C2O)C(O)CC1O (stereo not drawn) [3'-deoxykanamycin] | inactivated by other resistant strains | active against strains which phosphorylate the 3'-hydroxy group | 
NCC1CC(O)C(O)C(OC2C(N)CC(N)C(OC3OC(CO)C(O)C(N)C3O)C2O)O1 (stereo not drawn) [4'-deoxykanamycin] |  |  | resistance to kanamycin phosphotransferase Type-II
